According to patent US20120088809A1, “1-(2-ALKYL-2,3-DIHYDRO-BENZOFURAN-4-YL)-PYRROLIDIN-3-YLAMINE ACYL COMPOUNDS” (priority 2009, published 2012):

Columns and labels:
[1] = Plasma drug levels after oral administration; format: in vivo; conditions: male Sprague-Dawley rats; for Ratio 15/60 (plasma level 15 min / 60 min): oral 3 mg/kg; for concentration at 15 min / concentration at 60 min: rat, plasma; for concentration at 15 min: 15 min after oral administration of 3 mg/kg; for concentration at 60 min: 60 min after oral administration of 3 mg/kg
Procedure: The compounds of formula I show the surprising advantage of being maintained at more sustained plasma levels and thus being long acting. This can be evidenced, for instance, by measuring the plasma levels after oral administration to rats at 15 and 60 min after oral administration, resulting in lower ratio values for the compounds of the present invention. Thus the compounds of formula I, characterized in that R2 is an alkyl radical show more sustained plasma levels than prior art compounds (EP1189900B1), wherein R2 is hydrogen. […] Consequently, the present compounds allow for a more efficient therapy: the slow elimination facilitates maintaining a stable plasma concentration at a non-toxic, effective level and the prolonged effect may be expected to result in better compliance of the subject to be treated with the prescribed medication.

[2] = biological target: T1, recombinant human-MT1 receptor (Homo sapiens, UniProt P48039); assay: In vitro MT1 screening (AequoScreen aequorin luminescence, agonism); format: cell-based; conditions: percentage of activity relative to the reference agonist at the EC100 concentration
T1 construct: expressed in transfected cells; host or cells: unnamed cell line co-expressing mitochondrial apoaequorin and Gα16
T1 sequence (P48039 whole entry): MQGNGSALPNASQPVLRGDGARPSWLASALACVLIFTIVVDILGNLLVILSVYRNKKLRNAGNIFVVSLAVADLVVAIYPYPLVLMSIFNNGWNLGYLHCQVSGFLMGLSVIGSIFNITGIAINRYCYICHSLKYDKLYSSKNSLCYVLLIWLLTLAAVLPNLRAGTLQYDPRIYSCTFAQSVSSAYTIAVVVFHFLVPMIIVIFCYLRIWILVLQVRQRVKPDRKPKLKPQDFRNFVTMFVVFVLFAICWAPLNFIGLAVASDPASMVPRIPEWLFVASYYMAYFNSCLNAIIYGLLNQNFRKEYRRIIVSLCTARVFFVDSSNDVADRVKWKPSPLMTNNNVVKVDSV
Text: To proceed with compound screening over MT1 receptor, a cell line characterised by a stable overexpression of recombinant human-MT1 receptor was used. This line co-expresses mitochondrial apoaequorin and subunit Gα16.
Subunit Gα16 belongs to GPCR superfamily, in which intracellular signal transduction is produced via phospholipase (PLC). Activation of PLC produces an increment of inositol-triphosphate levels and intracellular calcium levels. This increment in calcium levels is, therefore, independent and full compatible with the signal transduction of MT1 receptor.
After binding to calcium, aequorin carries out the oxidation of colenterazine to colenteramide, a luminescent reaction.
Assay protocol for agonist screening consists in an overnight incubation of cells and colenterazine, being performed by an AequoScreen™ system instrument, PerkinElmer, USA. After that this mixture was injected over a plate that contains the solution of the compounds to screen and luminescence was immediately read. Only in case of antagonism screening, after 15-30 min of the first injection the reference agonist was added in the same well, and then luminescence was measured.
Agonist activity was calculated as percentage of activity relative to the reference agonist at the EC100 concentration.

Ratio 15/60 (plasma level 15 min / 60 min) [1] | concentration at 15 min [1] [ng/mL] | concentration at 60 min [1] [ng/mL] | activation at 0.001 µM ([2]; 1 nM compound) [%] | activation at 0.1 µM ([2]; 100 nM compound) [%] | % MT1 at 1 nM (agonism percentage) ([2]; 1 nM compound) [%] | % MT1 at 100 nM (agonism percentage) ([2]; 100 nM compound) [%] | Compound
1.03 | 56.8 | 55.4 | 19 | 73 | – | – | CC(=O)N[C@H]1CCN(c2ccc(F)c3c2CC(C)O3)C1 (stereo partly drawn) [Example 1, N-((3S)-1-(7-fluoro-2-methyl-2,3-dihydrobenzofuran-4-yl)pyrrolidin-3-yl)acetamide]
– | – | – | 32 | 79 | – | – | CC1Cc2c(N3CC[C@H](NC(=O)C(F)(F)F)C3)ccc(F)c2O1 (stereo partly drawn) [Example 2, 2,2,2-trifluoro-N-((3S)-1-(7-fluoro-2-methyl-2,3-dihydrobenzofuran-4-yl)pyrrolidin-3-yl)acetamide]
1.74 | 113 | 64.9 | 30 | 88 | – | – | CCC(=O)N[C@H]1CCN(c2ccc(F)c3c2CC(C)O3)C1 (stereo partly drawn) [Example 3, N-((3S)-1-(7-fluoro-2-methyl-2,3-dihydrobenzofuran-4-yl)pyrrolidin-3-yl)propionamide]
– | – | – | 44 | 98 | – | – | CC1Cc2c(N3CC[C@H](NC(=O)C(C)F)C3)ccc(F)c2O1 (stereo partly drawn) [Example 4, 2-fluoro-N-((3S)-1-(7-fluoro-2-methyl-2,3-dihydrobenzofuran-4-yl)pyrrolidin-3-yl)propanamide]
– | – | – | 32 | 91 | – | – | CCCC(=O)N[C@H]1CCN(c2ccc(F)c3c2CC(C)O3)C1 (stereo partly drawn) [Example 5, N-((3S)-1-(7-fluoro-2-methyl-2,3-dihydrobenzofuran-4-yl)pyrrolidin-3-yl)butyramide]
– | – | – | 24 | 75 | – | – | CC1Cc2c(N3CC[C@H](NC(=O)C(C)C)C3)ccc(F)c2O1 (stereo partly drawn) [Example 6, N-((3S)-1-(7-fluoro-2-methyl-2,3-dihydrobenzofuran-4-yl)pyrrolidin-3-yl)isobutyramide]
0.58 | 5.1 | 8.8 | 22 | 80 | – | – | CC1Cc2c(N3CC[C@H](NC(=O)C4CC4)C3)ccc(F)c2O1 (stereo partly drawn) [Example 7, N-((3S)-1-(7-fluoro-2-methyl-2,3-dihydrobenzofuran-4-yl)pyrrolidin-3-yl)cyclopropanecarboxamide]
– | – | – | 31 | 89 | – | – | CCCCC(=O)N[C@H]1CCN(c2ccc(F)c3c2CC(C)O3)C1 (stereo partly drawn) [Example 8, N-((3S)-1-(7-fluoro-2-methyl-2,3-dihydrobenzofuran-4-yl)pyrrolidin-3-yl)pentanamide]
– | – | – | 17 | 70 | – | – | CCC(C)C(=O)N[C@H]1CCN(c2ccc(F)c3c2CC(C)O3)C1 (stereo partly drawn) [Example 9, N-((3S)-1-(7-fluoro-2-methyl-2,3-dihydrobenzofuran-4-yl)pyrrolidin-3-yl)-2-methylbutanamide]
– | – | – | 36 | 89 | – | – | COC(=O)N[C@H]1CCN(c2ccc(F)c3c2CC(C)O3)C1 (stereo partly drawn) [Example 10, Methyl (3S)-1-(7-fluoro-2-methyl-2,3-dihydrobenzofuran-4-yl)pyrrolidin-3-ylcarbamate]
– | – | – | 28 | 73 | – | – | CCOC(=O)N[C@H]1CCN(c2ccc(F)c3c2CC(C)O3)C1 (stereo partly drawn) [Example 11, Ethyl (3S)-1-(7-fluoro-2-methyl-2,3-dihydrobenzofuran-4-yl)pyrrolidin-3-ylcarbamate]
– | – | – | 18 | 90 | – | – | CCNC(=O)N[C@H]1CCN(c2ccc(F)c3c2CC(C)O3)C1 (stereo partly drawn) [Example 12, 1-Ethyl-3-((3S)-1-(7-fluoro-2-methyl-2,3-dihydrobenzofuran-4-yl)pyrrolidin-3-yl)urea]
2.29 | 433 | 189 | 17 | 91 | – | – | CC(=O)N[C@H]1CCN(c2cccc3c2CC(C)O3)C1 (stereo partly drawn) [Example 13, N-((3S)-1-(2-methyl-2,3-dihydrobenzofuran-4-yl)pyrrolidin-3-yl)acetamide]
– | – | – | 8 | 79 | – | – | CC1Cc2c(cccc2N2CC[C@H](NC(=O)C(F)(F)F)C2)O1 (stereo partly drawn) [Example 14, 2,2,2-trifluoro-N-((3S)-1-(2-methyl-2,3-dihydrobenzofuran-4-yl)pyrrolidin-3-yl)acetamide]
– | – | – | 18 | 92 | – | – | CCC(=O)N[C@H]1CCN(c2cccc3c2CC(C)O3)C1 (stereo partly drawn) [Example 15, N-((3S)-1-(2-methyl-2,3-dihydrobenzofuran-4-yl)pyrrolidin-3-yl)propionamide]
– | – | – | 6 | 76 | – | – | CC1Cc2c(cccc2N2CC[C@H](NC(=O)C(C)C)C2)O1 (stereo partly drawn) [Example 16, N-((3S)-1-(2-methyl-2,3-dihydrobenzofuran-4-yl)pyrrolidin-3-yl)isobutyramide]
0.47 | 17 | 36 | 6 | 79 | – | – | CC1Cc2c(cccc2N2CC[C@H](NC(=O)C3CC3)C2)O1 (stereo partly drawn) [Example 17, N-((3S)-1-(2-methyl-2,3-dihydrobenzofuran-4-yl)pyrrolidin-3-yl)cyclopropanecarboxamide]
– | – | – | 28 | 82 | – | – | CC(C)CC(=O)N[C@H]1CCN(c2cccc3c2CC(C)O3)C1 (stereo partly drawn) [Example 18, 3-methyl-N-((3S)-1-(2-methyl-2,3-dihydrobenzofuran-4-yl)pyrrolidin-3-yl)butanamide]
– | – | – | 23 | 81 | – | – | CCC1Cc2c(cccc2N2CC[C@H](NC(C)=O)C2)O1 (stereo partly drawn) [Example 19, N-((3S)-1-(2-ethyl-2,3-dihydrobenzofuran-4-yl)pyrrolidin-3-yl)acetamide]
1.80 | 106 | 59 | 26 | 88 | – | – | CCC(=O)N[C@H]1CCN(c2cccc3c2CC(CC)O3)C1 (stereo partly drawn) [Example 20, N-((3S)-1-(2-ethyl-2,3-dihydrobenzofuran-4-yl)pyrrolidin-3-yl)propionamide]
1.59 | 59 | 37 | 15 | 78 | – | – | CCCC1Cc2c(cccc2N2CC[C@H](NC(=O)CC)C2)O1 (stereo partly drawn) [Example 21, N-((3S)-1-(2-propyl-2,3-dihydrobenzofuran-4-yl)pyrrolidin-3-yl)propionamide]
3.49 | 255 | 73 | – | – | 42 | 101 | COc1ccc2[nH]cc(CCNC(C)=O)c2c1 [Melatonin, reference compound]
3.94 | 280 | 71 | 45 | 118 | – | – | CCC(=O)NCC[C@@H]1CCc2ccc3c(c21)CCO3 [Ramelteon, N-[2-[(8S)-1,6,7,8-tetrahydro-2H-indeno[5,4-b]furan-8-yl)ethyl]propionamide, reference compound]
